Tests used:
E. Coli E96 = assay: Subcutaneous synergistic activity with amoxycillin, intraperitoneal mouse infection, E. Coli E96; format: in vivo
From the text: (§1) 9-N-Isobutylaminodeoxyclavulanic acid and 9-N-n-butylaminodeoxyclavulanic acid have been compared as synergists in vivo by the subcutaneous route against 2 strains of RTEM E. Coli in intraperitoneal mouse infections.
(§2) Comparative subcutaneous synergistic activity of 9-N-Isobutylaminodeoxyclavulanic acid and 9-N-n-butylaminodeoxyclavulanic acid with amoxycillin against mouse E. Coli infections

Aqueous solubility = format: physicochemical
E. coli JT 39 [1] = assay: Effectiveness as synergist with amoxycillin, peritoneal infection due to E. coli JT 39 (Demonstration 2); format: in vivo; details: for ED50: Escherichia coli, JT39, sc, Test 1, alone, sub-cutaneous 1 and 5 hours post infection, read-out: CD50 (approximate), compound alone
E. Coli E124 = assay: Subcutaneous synergistic activity with amoxycillin, intraperitoneal mouse infection, E. Coli E124; format: in vivo
From the text: as §1, §2

[2] = test system: staphylococcus aureus Russell; assay: Effectiveness as anti-bacterial, mice infected with Staphylococcus aureus Russell (thigh lesion); format: in vivo; details: for Protection (%): subcutaneous at 1, 3 and 5 hours post infection
Procedure: Mice were infected with staphylococcus aureus Russell (thigh lesion with 0.2 ml im) and thereafter were dosed subcutaneously at 1, 3 and 5 hours post infection with a solution of the test compound.

E. coli JT 39 [3] = assay: In-vivo synergistic effect with amoxycillin in mice infected by E. coli JT 39
Procedure: This microorganism produces considerable quantities of a β-lactamase which degrades amoxycillin so reducing its antibaceterial effectiveness in-vivo.
(Sodium amoxycillin was prepared by dissolving amoxycillin trihydrate in
sodium carbonate/sodium bicarbonate buffer).

[4] = test system: β-lactamase producing strains of gram-negative and gram-positive bacteria; assay: Synergistic/antibacterial activity in-vivo, general statement; details: with penicillins and cephalosporins
in vivo = details: mouse, ip
LD50 in mice = details: mouse, in vivo, sc

## CC(C)CNC/C=C1\O[C@@H]2CC(=O)N2[C@H]1C(=O)O [9-N-Isobutylaminodeoxyclavulanic acid]
E. Coli E96; subcutaneous route, intraperitoneal mouse infections, both strains (E96, E124)
  relative synergist activity in vivo, 2 strains of RTEM E. Coli: more active then the n-butylamine
Aqueous solubility
  aqueous solubility: increased aqueous solubility

## CC1(C)S[C@@H]2[C@H](NC(=O)[C@H](N)c3ccc(O)cc3)C(=O)N2[C@H]1C(=O)O [Amoxycillin]
E. coli JT 39 [1]
  ED50: 1000 mg/kg
E. coli JT 39 [1]; Test 2, sub-cutaneous 1 and 5 hours post infection
  CD50 (approximate), compound alone: 1000 mg/kg × 2
E. coli JT 39 [1]; Test 3, sub-cutaneous 1 and 5 hours post infection
  CD50 (approximate), compound alone: 1000 mg/kg × 2
E. Coli E96; E. Coli E96, P409, alone
  CD50, amoxycillin alone: > 1000 mg/kg × 2
E. Coli E96; Escherichia coli, sc, E. Coli E96, P392, alone, read-out: CD50, amoxycillin alone
  ED50: > 1000 mg/kg
E. Coli E124; E. Coli E124, P412
  CD50, amoxycillin alone: > 1000 mg/kg × 2
E. Coli E124; Escherichia coli, sc, E. Coli E124, P397, alone, read-out: CD50, amoxycillin alone
  ED50: > 1000 mg/kg

## Cc1nnc(SCC2=C(C(=O)O)N3C(=O)[C@@H](NC(=O)Cn4cnnn4)[C@H]3SC2)s1 [Cefazolin, reference compound]
E. coli JT 39 [1]
  ED50: 10.5 mg/kg
[2]; 20 mg/kg
  Protection (%): 39.0%
[2]; 50 mg/kg
  Protection (%): 71.2%

## Cc1onc(-c2ccccc2Cl)c1C(=O)N[C@@H]1C(=O)N2[C@@H]1SC(C)(C)[C@@H]2C(=O)O [Cloxacillin, reference compound]
[2]; 20 mg/kg
  Protection (%): 61.6%
[2]; 50 mg/kg
  Protection (%): 91.7%

## O=C(O)[C@H]1/C(=C/CNCc2ccccc2)O[C@@H]2CC(=O)N21 [Example 2, 9-N-Benzylaminodeoxyclavulanic acid]
E. coli JT 39 [3]; administered orally
  protecting amoxycillin from the β-lactamase of E. coli JT 39 in-vivo: less effective per given weight than when administered sub-cutaneously
E. coli JT 39 [3]; in-vivo synergy tests, mice
  toxic effects during these tests: not observed to produce toxic effects
[2]; 5 mg/kg
  Protection (%): 69.8%
[2]; 10 mg/kg
  Protection (%): 89.7%
[2]; 20 mg/kg
  Protection (%): 99.3%
[2]; compared with ampicillin, cloxacillin or cefazolin
  effectiveness in treating certain infections due to Staphylococcus aureus Russell: more effective than ampicillin, cloxacillin or cefazolin
[4]
  synergistic activity in-vivo: particularly good synergistic activity in-vivo
In vivo
  LD50: > 1000 mg/kg
LD50 in mice
  LD50: > 500 mg/kg

## COc1ccc(CNC/C=C2\O[C@@H]3CC(=O)N3[C@H]2C(=O)O)cc1 [Example 7, 9-N-(4-Methoxybenzyl)aminodeoxyclavulanic acid]
[2]; 5 mg/kg
  Protection (%): 28.0%
[2]; 10 mg/kg
  Protection (%): 80.8%
[2]; 20 mg/kg
  Protection (%): 87.6%

## CC1(C)S[C@@H]2[C@H](NC(=O)[C@H](N)c3ccc(O)cc3)C(=O)N2[C@H]1C(=O)O [Sodium amoxycillin, reference compound]
E. coli JT 39 [3]; Escherichia coli, JT39, sc, sub-cutaneous, mice, alone, read-out: CD50, sodium amoxycillin alone
  ED50: 200 mg/kg

— patent US4359473A, “α-Amino deoxy clavulanic acid antibacterial agents” (priority 1977, dated 1982)
